Data from patent publication US11091445B2, “Compounds, process for obtaining the compounds, pharmaceutical composition, use of the compounds and method for treating psychiatric disorders and/or sleep disorders” (Aché Laboratórios Farmacêuticos S.A., priority 2016, dated 2021).

What was measured:
[1] = Pharmacokinetics in CD-1 mouse, I.V. and oral; format: in vivo; settings: intravenous
Procedure: PK tests were performed with CD-1 mice, using 4 animals per molecule tested, 2 animals for pharmacokinetic analysis by intravenous (IV) administration and 2 animals for oral administration. The treatment was carried out in a single dose: I.V. group with dose of 1 mg/kg and Oral group with dose of 10 mg/kg. […] Blood collection was performed after euthanasia at 08 defined time points and at 24 hours post-dose. The pharmacokinetic analysis parameters detected for Group IV were: half-life (t½), drug concentration at time zero (C0), last measurable plasma concentration (AUClast), area under the plasma concentration curve extrapolation percentage (AUC % ext), area under the plasma concentration curve extrapolation to infinity (AUCinf), volume of distribution (Vz), steady state volume of distribution (Vss), clearance (CL) and mean residence time (MRT). The parameters evaluated for the Oral group were: bioavailability (F %), maximum concentration reached (Cmax), time to reach maximum plasma concentration (Tmax), last measurable plasma concentration (AUClast), area under the plasma concentration curve extrapolation percentage (AUC % ext), area under the plasma concentration curve extrapolation to infinity (AUCinf), area under the plasma concentration curve extrapolation to infinity versus dose (AUCinf/Dose), half-Life (t½), and mean residence time (MRT).

[2] = tested on: cryopreserved human hepatocytes; test: Intrinsic clearance in cryopreserved human hepatocytes; format: in vitro ADME; settings: 37° C.
Procedure: (§1) Cryopreserved hepatocytes from humans, rats (Sprague-Dawley males) and from mice (CD-1 males) were used for incubation at different times (0, 0.5, 1, 1.5, 2 hours) at 37° C. followed by HPLC-MS/MS detection. The aim was to verify the clearance time of the test substance on hepatocytes. The experiment was performed on a 96-well plate and the cryopreserved hepatocytes were thawed and resuspended in Krebs-Heinslet buffer (pH 7.3). The reaction was started by adding each test compound to each cell suspension and performing the incubation at the times indicated above. The reaction was quenched with addition of acetonitrile in the wells and detection by HPLC-MS/MS (mass spectrometry). MS/MS is performed by combining two mass detectors into a single instrument.

[3] = tested on: cryopreserved hepatocytes from rats (Sprague-Dawley males); test: Intrinsic clearance in cryopreserved rat hepatocytes; format: in vitro ADME; settings: 37° C.
Procedure: as §1

[4] = tested on: cryopreserved hepatocytes from mice (CD-1 males); test: Intrinsic clearance in cryopreserved mouse hepatocytes; format: in vitro ADME; settings: 37° C.
Procedure: as §1

[5] = tested on: melatonin receptors; settings: literature (Depreux et al. 1994); cited from earlier work
[6] = tested on: CYP2C9 and CYP2C19; settings: cited from earlier work
[7] = molecular target: T1, CYP1A2 (Homo sapiens (Human), UniProt P05177); test: CYP inhibition, fluorogenic substrate; format: in vitro ADME
Text: The CYP inhibition test used fluorogenic substrates specific to each CYP to check for inhibition thereof by detection of the expected metabolite using a fluorimetric method. Recombinant CYPs (CYP2B6, CYP2C8, CYP2C9, CYP2C9, CYP2C19, CYP2D6, CYP3A4) from specific humans for each cytochrome family, subfamily and polypeptide were used. The following were used as substrates: CEC (3-Cyano-7-Ethoxycoumarin) which forms as metabolite CHC (3-Cyano-7-Hydroxycoumarin); EFC (7-Ethoxy-4-trifluoromethyl coumarin), forming the metabolite HFC (7-Hydroxytrifluoromethylcoumarin); DBF (Dibenzylfluorescein) and its respective fluorescein metabolite; MFC (7-Methoxy-4-trifluoromethylcoumarin) which forms the metabolite HFC (7-Hydroxytrifluoromethylcoumarin); BFC (7-Benzyloxy-Trifluoromethylcoumarin) and its metabolite HFC; and BzRes (benzyloxyresorufin) to form resofurine. The detection of the metabolite was done with a fluorimetric method: analytical technique to identify and characterize the amount of substance by excitation using a beam of ultraviolet light and measurement of the emitted fluorescence. For detection, a 96-well plate was used. […] Incubations were performed between 20-50 minutes at 37° C. according to the specific parameter of each fluorogenic substrate, for the evaluated component. Fluorescence at each well was detected before and after the incubation period.

[8] = molecular target: T1, CYP1A2; settings: cited from earlier work
[9] = molecular target: MT1 receptor (Homo sapiens (Human), UniProt P48039); test: MT1 functional assay
[10] = molecular target: MT2 receptor (Homo sapiens (Human), UniProt P49286); test: MT2 functional assay; format: cell-based
Sequence of MT2 receptor (P49286 whole entry): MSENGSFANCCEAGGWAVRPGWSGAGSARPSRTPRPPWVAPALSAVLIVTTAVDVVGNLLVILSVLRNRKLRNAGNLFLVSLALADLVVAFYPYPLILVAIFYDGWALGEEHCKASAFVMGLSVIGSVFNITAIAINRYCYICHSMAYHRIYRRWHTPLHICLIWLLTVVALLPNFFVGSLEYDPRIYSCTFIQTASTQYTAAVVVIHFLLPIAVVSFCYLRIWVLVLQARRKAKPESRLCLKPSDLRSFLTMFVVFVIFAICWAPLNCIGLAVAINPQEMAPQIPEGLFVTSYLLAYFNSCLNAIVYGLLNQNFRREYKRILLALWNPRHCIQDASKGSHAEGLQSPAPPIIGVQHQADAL

T1 sequence (P05177 whole entry): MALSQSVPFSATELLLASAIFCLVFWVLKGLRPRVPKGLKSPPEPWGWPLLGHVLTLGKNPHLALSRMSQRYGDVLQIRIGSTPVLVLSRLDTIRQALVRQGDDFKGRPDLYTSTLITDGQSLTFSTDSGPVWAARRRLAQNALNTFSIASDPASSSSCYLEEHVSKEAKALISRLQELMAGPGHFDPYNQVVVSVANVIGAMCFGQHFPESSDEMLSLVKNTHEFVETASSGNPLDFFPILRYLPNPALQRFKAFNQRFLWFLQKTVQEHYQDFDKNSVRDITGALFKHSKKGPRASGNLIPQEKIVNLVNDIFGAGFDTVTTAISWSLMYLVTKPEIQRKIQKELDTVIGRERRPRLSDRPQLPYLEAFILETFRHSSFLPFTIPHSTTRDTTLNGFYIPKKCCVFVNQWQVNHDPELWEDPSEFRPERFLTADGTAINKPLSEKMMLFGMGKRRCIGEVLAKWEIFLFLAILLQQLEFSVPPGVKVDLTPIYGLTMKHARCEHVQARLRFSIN
Sequence of MT1 receptor (P48039 whole entry): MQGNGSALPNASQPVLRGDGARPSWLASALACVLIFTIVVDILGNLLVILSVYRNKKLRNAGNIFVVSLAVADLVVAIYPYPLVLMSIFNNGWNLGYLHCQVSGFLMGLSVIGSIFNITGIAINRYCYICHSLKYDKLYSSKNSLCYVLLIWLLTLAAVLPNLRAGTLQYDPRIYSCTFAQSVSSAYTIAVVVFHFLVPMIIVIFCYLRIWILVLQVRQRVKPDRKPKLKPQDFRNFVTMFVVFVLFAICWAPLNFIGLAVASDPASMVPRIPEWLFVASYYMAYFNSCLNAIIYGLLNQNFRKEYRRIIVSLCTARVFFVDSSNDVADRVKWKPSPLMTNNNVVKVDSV

C0 compared to agomelatine [1]	Clearance compared to agomelatine [1]	Intrinsic clearance half-life, Human hepatocytes [2]	Intrinsic clearance half-life, Rat Sprague-Dawley hepatocytes [3]	Intrinsic clearance half-life, Mouse CD-1 hepatocytes [4]	affinity to CYP isoforms, specially CYP1A2 [7]	intrinsic activity at MT1 [9]	intrinsic activity at MT2 [10]	Structure (SMILES)	affinity lower than melatonin affinity [5]	fraction metabolized by CYP2C9 and CYP2C19 [6]	fraction metabolized in the liver by CYP1A2 [8]
higher	lower	>2 h	0.883 h	>2 h	–	–	–	CCOc1nc2ccc(OC)cc2n1CCCNC(C)=O [IA2-120]	–	–	–
higher	lower	–	1.8 h	–	–	–	–	COc1cc2c(cc1Cl)nc(OC)n2CCNC(C)=O [IA2-143]	–	–	–
higher	lower	>2 h	0.867 h	>2 h	–	–	–	CCOc1nc2cc(Cl)c(OC)cc2n1CCNC(C)=O [IA2-121]	–	–	–
–	–	–	–	–	–	–	–	COc1ccc2ncn(CCNC(C)=O)c2c1 [N-[2-(6-methoxybenzimidazol-1-yl)-ethyl]acetamide]	approximately 3,200 times	–	–
higher	lower	>2 h	>2 h	>2 h	–	–	–	CCOc1nc2cc(Cl)c(OC)cc2n1CCCNC(C)=O [IA2-142]	–	–	–
–	–	0.8 h	0.833 h	0.417 h	high affinity	agonist	agonist	COc1ccc2cccc(CCNC(C)=O)c2c1 [IA2-76 (agomelatine), agomelatine]	–	10%	Around 90%
